Experimental data: patent publication US11890350B2, “Steroid acid-peptide based cytotoxic compounds” (DEFENCE THERAPEUTICS INC., priority 2021, dated 2024)
Peptide text beside a SMILES is read from it. * marks the point of attachment. Cholyl = C[C@H](CCC(=O)*)[C@H]1CC[C@H]2[C@@H]3[C@H](O)C[C@@H]4C[C@H](O)CC[C@]4(C)[C@H]3C[C@H](O)[C@]12C

Columns and labels:
EL4 cells = experiment: Cytochrome C cargo release cell death assay; type: cell-based
Protocol: FIGS. 3A and 3B show the ability of CA-SV40 to promote cargo release in the cytoplasm of target cells.
Cytochrome C is a protein that is normally entrapped in the mitochondria but can be released upon intrinsic signaling known to trigger apoptosis. An experiment was designed where recombinant cytochrome C was added to EL4 cells either alone or in combination with CA-SV40 (47 μM) (FIG. 3A). […] In addition, it may explain the increase in intracellular ROS levels as it can damage endosomes/vesicles responsible for intracellular ROS transport.

EL4 lymphoma cells [1] = experiment: Rescue from CA-SV40-triggered apoptosis by ROS blockers; type: cell-based
Protocol: (§1) Percentages of double-positive stained cells is shown, which represents late apoptotic cells.
(§2) To further uncover the mechanism of cell death, we next investigated whether CA-SV40-triggered apoptosis is strictly occurring in the absence of necrosis. To do so, a co-staining experiment was conducted using propidium iodine (PI) and Annexin-V at different time points. […] Since a large number of anti-cancer molecules can trigger cell death via release or de novo production of reactive oxygen species (ROS), we next stained the EL4 lymphoma cells treated with CA-SV40 at the IC50 dose with MitoSOX™. […] This observation led us to test whether treatment with MitoTempo™ (blocking mitochondria-specific ROS) or N-acetylcysteine (NAC—building block for GSH) rescue from CA-SV40-triggered cell death.

EL4 T-cell lymphoma = experiment: Cell death (kill) curve analysis by flow cytometry; settings: alone, at any of the concentrations tested
EL4 lymphoma [2] = experiment: EL4 tumor model in vivo; design: species or system C57BL/6 mice; settings: for survival at day 40 / tumor growth: alone
Description: FIGS. 4A to 4F show the antitumoral effect of CA-SV40 on EL4 lymphoma in vivo. […] EL4 tumors without any treatment (i.e., PBS) are shown in black, whereas anti-PD-1 treatment alone is in orange and anti-CTLA-4 treatment alone is in purple. […]
Female C57BL/6 mice (n=10/group) received a SC injection of 5×10^5 EL4 cells at Day 0. Five days later (appearance of palpable tumors˜40-60 mm^3), mice were SC-injected with PBS, CA-SV40, anti-PD-1, or anti-CTLA4, alone or in combination.
The apoptosis observations obtained in vitro prompted us to explore whether CA-SV40 administration to mice with pre-established tumors can trigger a therapeutic effect. First, CA-SV40 was delivered alone using three different doses (47 μM, 95 μM, and 190 μM) every 48 h following the appearance of palpable tumors (EL4) (FIG. 4A) for a total of 5 injections. […] To further improve this response, we next combined the highest tested CA-SV40 dose (delivered daily instead of every 48 h) with the immune-checkpoint inhibitors (ICIs) anti-PD-1 or anti-CTLA4 (FIG. 4D). […]

EL4 lymphoma cells [3] = experiment: Annexin V apoptosis assessment by flow cytometry; type: cell-based; settings: 190 μM
Protocol: Annexin-V staining percentage after treatment with different Cholic acid-NLS conjugates (190 μM) is shown relative to live EL4 lymphoma cells (i.e., PBS treated cancer cells) by flow cytometry.

[4] = test system: CT-26 colon carcinoma cells; experiment: Annexin V apoptosis assessment by flow cytometry; type: cell-based; settings: 190 μM
4T1 breast cancer cells = experiment: Annexin V apoptosis assessment by flow cytometry; type: cell-based; settings: 4T-1; 190 μM
mesenchymal stem cells = experiment: Annexin V apoptosis assessment on normal cells; type: cell-based; settings: 190 μM
macrophages = experiment: Annexin V apoptosis assessment on normal cells; type: cell-based; settings: 190 μM
[5] = test system: bone marrow-derived dendritic cells; experiment: Annexin V apoptosis assessment on normal cells; type: cell-based, mouse; settings: 190 μM
Protocol: Mouse bone marrow derived DCs (BMDCs) were generated by flushing the whole marrow from mouse femurs using RPMI™ 1640 supplemented with 10% fetal bovine serum (FBS), 50 U/mL Penicillin-Streptomycin, 2 mM L-glutamine, 10 mM HEPES, 1% MEM Non-essential Amino Acids, 1 mM Sodium Pyruvate, 0.5 mM β-mercaptoethanol. Following red blood cell lysis, cells were then cultured in media supplemented with 50 ng/mL murine recombinant GM-CSF. The media was changed on days 2, 4, 6 and 8. On day 9, the media was replaced to include recombinant murine GM-CSF and LPS from Escherichia coli O111 (1 ng/mL) to stimulate DC maturation. Mature DCs were assessed by flow cytometry for their surface expression of CD3, CD19, NK1.1, CD11c, CD80, CD86, and I-A^b.

EL4 lymphoma [6] = experiment: PI / Annexin-V co-staining time course; type: cell-based
Protocol: as §1, §2

EL4 lymphoma cells [7] = experiment: MitoSOX staining for ROS production; type: cell-based; settings: CA-SV40 at the IC50 dose, up to 8 h
Protocol: as §1, §2

[8] = highest tested dose (190 μM), every 48 h, 5 injections

Question: For “cytochrome C: recombinant cytochrome C protein, cargo added to EL4 cells [reference compound]”, which cell death (EL4 cells; recombinant cytochrome C alone) is on record?
Answer: did not trigger cell death

Question: Which results are given for `CC(=O)N[C@@H](CS)C(=O)O` [NAC, N-acetylcysteine]?
Answer: rescue from CA-SV40-triggered apoptosis (EL4 lymphoma cells [1]; CA-SV40 at IC50 dose): completely blocked apoptosis; rescue from CA-SV40-triggered apoptosis (EL4 lymphoma cells [1]; CA-SV40 at higher doses (IC100)): incomplete but significant blockade

Question: With “SV40 NLS: NLS from SV-40 large T-antigen (e.g., PKKKRKV), unconjugated negative control” as the compound, how does the cytotoxic activity (EL4 T-cell lymphoma) read?
Answer: did not exhibit any cytotoxic activity

Question: With `CC[C@H](C)[C@H](NC(=O)[C@H](CCCNC(=N)N)NC(=O)[C@H](CCCCN)NC(=O)[C@H](CCSC)NC(=O)[C@H](CC(C)C)NC(=O)[C@H](Cc1c[nH]cn1)NC(=O)[C@@H](NC(=O)[C@@H](NC(=O)[C@H](Cc1ccc(O)cc1)NC(=O)CNC(=O)[C@H](C)NC(=O)[C@@H](NC(=O)[C@H](CCCCN)NC(=O)[C@H](CC(N)=O)NC(=O)[C@H](CCCNC(=N)N)NC(=O)[C@H](CC(C)C)NC(=O)[C@H](CCCCN)NC(=O)[C@H](CCCCN)NC(=O)[C@H](CO)NC(=O)[C@H](CS)NC(=O)CC[C@@H](C)[C@H]1CC[C@H]2[C@@H]3[C@H](O)C[C@@H]4C[C@H](O)CC[C@]4(C)[C@H]3C[C@H](O)[C@]12C)[C@@H](C)CC)C(C)C)[C@@H](C)O)C(=O)O` [CA-NLS3 RPS17] (Cholyl-CSKKLRNKIAGYVTHLMKRI-OH; N-terminus and C-terminus assumed) as the compound, how does the “survival at day 40” value (EL4 lymphoma [2]; [8]) read?
Answer: 20%

Question: What about the tumor growth (EL4 lymphoma [2]; [8]) of the same compound?
Answer: significantly delayed tumor growth

Question: With `CC(C)[C@H](NC(=O)[C@H](CCCCN)NC(=O)[C@H](CCCNC(=N)N)NC(=O)[C@H](CCCCN)NC(=O)[C@H](CCCCN)NC(=O)[C@H](CCCCN)NC(=O)[C@@H]1CCCN1C(=O)CNC(=O)[C@H](Cc1ccc(O)cc1)NC(=O)CNC(=O)[C@H](CS)NC(=O)CC[C@@H](C)[C@H]1CC[C@H]2[C@@H]3[C@H](O)C[C@@H]4C[C@H](O)CC[C@]4(C)[C@H]3C[C@H](O)[C@]12C)C(=O)NCC(=O)NCC(=O)O` [CA-SV40] (Cholyl-CGYGPKKKRKVGG-OH; N-terminus and C-terminus assumed) as the compound, how does the “cell death through apoptosis (Annexin V staining)” value (“cell death through apoptosis” below) (EL4 lymphoma cells [3]) read?
Answer: triggers cell death through apoptosis

Question: And the “cytotoxicity compared with CA-GWG-SV40” value (EL4 lymphoma cells [3])?
Answer: notably higher

Question: What about the “cell death through apoptosis” value [4] of the same compound?
Answer: triggers cell death through apoptosis

Question: What about the “cell death through apoptosis” value (4T1 breast cancer cells) of the same compound?
Answer: triggers cell death through apoptosis

Question: What about the “apoptosis in normal cells” value (mesenchymal stem cells) of the same compound?
Answer: induce apoptosis

Question: What about the “apoptosis in normal cells” value (macrophages) of the same compound?
Answer: induce apoptosis

Question: What about the “apoptosis in normal cells” value [5] of the same compound?
Answer: induce apoptosis

Question: What about the “time at which apoptosis started occurring post-treatment” value (EL4 lymphoma [6]; PI/Annexin-V) of the same compound?
Answer: 1 h

Question: And the “time to complete death” value (EL4 lymphoma [6]; PI/Annexin-V)?
Answer: 8 h

Question: And the “necrotic cells (PI+/Annexin V−)” value (EL4 lymphoma [6]; time course)?
Answer: no necrotic cells

Question: And the “ROS production (MitoSOX signal)” value (EL4 lymphoma cells [7])?
Answer: time-dependent ROS production

Question: And the “increase in cell death” value (EL4 cells; CA-SV40 47 μM combined with cytochrome C)?
Answer: three-fold

Question: What about the cell death (EL4 cells; CA-SV40 47 μM in combination with cytochrome C) of the same compound?
Answer: 61%

Question: And the cell death (EL4 cells; before combination (weak CA-SV40 dose, 47 μM))?
Answer: 19%

Question: What about the antitumoral response (EL4 lymphoma [2]; highest dose daily, combined with anti-PD-1 or anti-CTLA4, vs CA-SV40 alone) of the same compound?
Answer: significantly enhanced the antitumoral response

Question: And the tumor growth (EL4 lymphoma [2]; highest dose delivered daily)?
Answer: significant delays in tumor growth

Question: And the tumor growth (EL4 lymphoma [2]; [8])?
Answer: significantly delayed tumor growth

Question: For `CSCC[C@H](NC(=O)[C@H](CS)NC(=O)CC[C@@H](C)[C@H]1CC[C@H]2[C@@H]3[C@H](O)C[C@@H]4C[C@H](O)CC[C@]4(C)[C@H]3C[C@H](O)[C@]12C)C(=O)NCC(=O)N[C@@H](CCCNC(=N)N)C(=O)N[C@H](C(=O)N[C@@H](CCCNC(=N)N)C(=O)N[C@H](C(=O)N[C@@H](CCCCN)C(=O)N[C@H](C(=O)N[C@H](C(=O)N[C@@H](CCCCN)C(=O)N[C@@H](CCCCN)C(=O)N[C@@H](C)C(=O)N[C@@H](C)C(=O)NCC(=O)NCC(=O)O)C(C)C)[C@@H](C)O)[C@@H](C)O)C(C)C` [CA-NLS1 RPS17] (Cholyl-CMGRVRTKTVKKAAGG-OH; N-terminus and C-terminus assumed), which “survival at day 40” value (EL4 lymphoma [2]; [8]) is on record?
Answer: 20%

Question: And the tumor growth (EL4 lymphoma [2]; [8])?
Answer: significantly delayed tumor growth
